The record followed here is patent US20050020671A1, “Pharmaceutical formulation” (priority 2001, published 2005).

This data set in a line: chemical compatibility of ranitidine hydrochloride and acetylsalicylic acid in contact. The settings on record: the two actives in physical contact; degradation products form, reaction manifest in a matter of days. The format is physicochemical. From the text: British Patent No 2,105,193 discloses pharmaceutical compositions comprising a systemic non-steroidal anti-inflammatory drug and ranitidine or a physiologically acceptable salt thereof. […] These two active ingredients react chemically with each other to produce degradation products. The reaction becomes manifest in a matter of days and implies a serious stability problem for pharmaceutical compositions containing both active ingredients.

Counter-ions that a name gives are not always drawn.

As for `CNC(=C[N+](=O)[O-])NCCSCc1ccc(CN(C)C)o1` [ranitidine hydrochloride, N-[2-[[[5-(dimethylamino)methyl]-2-furanyl]methyl]thio]ethyl-N′-methyl-2-nitro-1,1-ethanediamine], the “chemical compatibility with acetylsalicylic acid” value was “clear chemical incompatibility”.
